Where “and” joins values, the source holds several entries; their conditions need not be identical. Equal entries are not always repeated.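 Exposure lasted 48 hours, with cells grown in 96-well plates and compounds tested at five concentrations. At the GI50, growth is halved. TGI is the concentration that stops growth completely.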
How the values were obtained:
Assay in all cases: NCI-60 cell line screen, 48 h
DLD-1 colon = test system: DLD-1 colon
DMS 114 small cell lung = test system: DMS 114 small cell lung
HOP-18 NSCLC = test system: HOP-18 NSCLC
LXFL 529 NSCLC = test system: LXFL 529 NSCLC
SNB-78 CNS = test system: SNB-78 CNS
HS 578T breast = test system: HS 578T breast
MCF7 breast = test system: MCF7 breast
T-47D breast = test system: T-47D breast
DU-145 prostate = test system: DU-145 prostate
PC-3 prostate = test system: PC-3 prostate

Structure (SMILES)	TGI (DLD-1 colon)	TGI (DMS 114 small cell lung)	TGI (HOP-18 NSCLC)	TGI (LXFL 529 NSCLC)	TGI (SNB-78 CNS)	also measured
C=CCN=C1NC(=O)C(CC(=O)Nc2cccc(Cl)c2)S1 (configuration not stated)	> 100 µM	> 100 µM	> 100 µM	> 100 µM		
CC1CCCc2c1n[nH]c2CC1CC(=O)NC(=O)C1 (configuration not stated)	> 100 µM	> 100 µM	> 100 µM	> 100 µM	> 100 µM	
CSc1ccc(Cc2cc(C(C)(C)C)cc(C(C)(C)C)c2O)cc1	27.1 µM	25.7 µM	33.8 µM	26.9 µM	28.8 µM	
C=CCC1(CN(C)C)CC/C(=C\c2cc(OC)c(OC)c(OC)c2)C1=O (configuration not stated)	38.5 µM	39.5 µM	> 100 µM	35.2 µM	> 100 µM	
Oc1cccc2cccnc12	> 100 µM		> 100 µM	> 100 µM		GI50 (HS 578T breast): > 100 µM; TGI (HS 578T breast): > 100 µM; GI50 (MCF7 breast): 1.72 µM and 3.31 µM; TGI (MCF7 breast): 5.05 µM and > 31.6 µM; TGI (T-47D breast): > 100 µM; GI50 (DU-145 prostate): 20.9 µM and 68.8 µM and 18.2 µM; TGI (DU-145 prostate): > 100 µM
C/C(=N\NC(=O)c1ccccc1O)c1c(O)cc(C)oc1=O	> 100 µM	> 100 µM	> 100 µM	> 100 µM	> 100 µM	
COc1ccc(C2=NN(C(C)=O)c3nc4ccccc4nc3O2)cc1	88 µM	> 100 µM	88.9 µM	> 100 µM		
Cn1c(=O)nc2n(-c3ccc(F)c(F)c3)c3ccccc3nc-2c1=O	85.3 µM	18 µM	97.7 µM	64.9 µM	54.6 µM	
NCCCNCc1c2ccccc2c(CNCCCN)c2ccccc12	> 100 µM	37.8 µM	75 µM	24.5 µM	60.1 µM	
CCCC[C@H](CCc1ccccc1)N(C(=O)OC)N1CCC[C@H]1COC	34.8 µM	30.2 µM	53.1 µM	39.6 µM	47.3 µM	
O=C(N/C(=C\c1cccc([N+](=O)[O-])c1)c1nc2c3c(ccc2[nH]1)C(=O)c1ccccc1C3=O)c1ccccc1	> 100 µM	> 100 µM	> 100 µM	> 100 µM	> 100 µM	
Cc1ccc(NC(=O)C(=O)C2C(=O)NC(=O)NC2=O)c(C)c1	> 100 µM	> 100 µM	> 100 µM	> 100 µM	> 100 µM	
CCCCCCCCCCNC(=S)OC	> 100 µM	44.9 µM	> 100 µM	> 100 µM	> 100 µM	
NC1=C(O)/C(=N/NS(=O)(=O)c2ccccc2)C(c2ccc3c(c2)OCO3)O1 (configuration not stated)	> 100 µM	> 100 µM	> 100 µM	> 100 µM	> 100 µM	
COC(=O)CCCCCOS(=O)(=O)c1ccc(C)cc1	> 100 µM	> 100 µM	> 100 µM	> 100 µM	> 100 µM	
O=C(/C=C/c1ccc(-c2ccccc2)cc1)c1ccccc1	> 100 µM	31.8 µM	> 100 µM	42.2 µM	> 100 µM	
CN1C(c2ccccc2)CC(=NO)CC1c1ccccc1 (configuration not stated)	> 100 µM	> 100 µM		> 100 µM	> 100 µM	GI50 (MCF7 breast): 44.3 µM; GI50 (T-47D breast): 46.4 µM

Structure (SMILES)	TGI (DLD-1 colon)	TGI (DMS 114 small cell lung)	TGI (HOP-18 NSCLC)	TGI (LXFL 529 NSCLC)	TGI (SNB-78 CNS)	also measured
CC(C)(C)OC(=O)NC(Cc1ccccc1)C(=S)N1CCCC1 (configuration not stated)	> 100 µM	> 100 µM	> 100 µM	> 100 µM	> 100 µM	
COc1nc(NC2OC(COC(C)=O)C(OC(C)=O)C(OC(C)=O)C2OC(C)=O)c(N=C(C)C(C)=O)c(=O)n1C (configuration not stated)	> 100 µM	> 100 µM	> 100 µM	> 100 µM	> 100 µM	
Cc1ccc(NC(=O)CCc2nnc3s/c(=C\C=C\c4ccccc4)c(=O)n23)cc1	> 100 µM	> 100 µM	> 100 µM	> 100 µM	> 100 µM	TGI (HS 578T breast): > 100 µM; TGI (MCF7 breast): > 100 µM; TGI (T-47D breast): > 31.6 µM; TGI (PC-3 prostate): > 100 µM; TGI (DU-145 prostate): > 100 µM
OCC1CC2C=CCC(C2)C1 (configuration not stated)	> 100 µM	> 100 µM	> 100 µM	> 100 µM	> 100 µM	
O=[N+]([O-])c1cc(I)cc(/C=N/NS(=O)(=O)c2ccc(F)cc2)c1O	> 100 µM	52.2 µM	53.2 µM	43.1 µM	69 µM	
CCOC(=O)NC(=O)c1cn(C2CCCCC2)c(=O)n(C)c1=O	> 100 µM	> 100 µM	> 100 µM	> 100 µM	> 100 µM	
C[N+]1(CCNP(=S)(NCC[N+]2(C)Cc3c(ccc4c3OCO4)C3C2c2cc4c(cc2C[C@@H]3O)OCO4)NCC[N+]2(C)Cc3c(ccc4c3OCO4)C3C2c2cc4c(cc2C[C@@H]3O)OCO4)Cc2c(ccc3c2OCO3)C2C1c1cc3c(cc1C[C@H]2O)OCO3 (some centres not stated)						GI50 (DLD-1 colon): 1.68 µM; GI50 (SNB-78 CNS): 2.7 µM; GI50 (HOP-18 NSCLC): 45.2 µM; GI50 (LXFL 529 NSCLC): 2.75 µM
CCCC(=O)Oc1ccc(/C=N/NC(N)=S)nc1	> 100 µM	> 100 µM	> 100 µM	> 100 µM	> 100 µM	
CCCCSC1CCSc2c1ccc1ccccc21 (configuration not stated)	> 100 µM	> 100 µM	> 100 µM		> 100 µM	
CC(=O)NNc1ncc(C(=O)/C=C/c2ccccc2C)s1	> 100 µM	> 100 µM	> 100 µM		> 100 µM	
Cn1cnc(SC2=CC(=O)C=C3S[C@H]4C[C@@]23c2c(c(O)c3c5c2=NCCC=5C=N3)N4)c1CC(N)C(=O)O (some centres not stated)	26.3 µM	4.31 µM	30.7 µM		38.4 µM	GI50 (HS 578T breast): 39.7 µM; TGI (HS 578T breast): 96.1 µM; TGI (MCF7 breast): 11.5 µM; GI50 (T-47D breast): 20.2 µM; TGI (T-47D breast): 38.3 µM; GI50 (DLD-1 colon): 12.6 µM; GI50 (PC-3 prostate): 13.4 µM; TGI (PC-3 prostate): 51.8 µM; GI50 (SNB-78 CNS): 15.3 µM; TGI (DU-145 prostate): 32 µM
C/C(=N\N)C(CN1CCOCC1)C(c1ccccc1)c1c(O)c2ccccc2oc1=O (configuration not stated)	> 100 µM	> 100 µM		> 100 µM	> 100 µM	TGI (HS 578T breast): > 100 µM; TGI (MCF7 breast): > 100 µM; TGI (T-47D breast): > 100 µM; TGI (PC-3 prostate): > 100 µM; TGI (DU-145 prostate): > 100 µM
Clc1ccc(-c2nnc(-c3nn(-c4ccccc4)c4nc5ccccc5nc34)o2)cc1	> 100 µM	> 100 µM	> 100 µM	> 100 µM	> 100 µM	
Cn1nc(-c2ccccc2)c2c(/C=C/c3ccc(F)cc3)onc2c1=O	> 100 µM		> 100 µM	> 100 µM		
Cc1ccc([N+](=O)[O-])cc1NC(=O)C(=O)Cc1nc2ccc(C(=O)c3ccccc3)cc2[nH]c1=O	> 100 µM	> 100 µM	> 100 µM	> 100 µM		
COc1cccc(/C=C2\N=C(Cl)OC2=O)c1O	> 100 µM	> 100 µM	> 100 µM	> 100 µM	> 100 µM	TGI (DU-145 prostate): > 100 µM

— PubChem BioAssay (NCI)
